Reference: article PMC9962283, “The Plant Derived 3-3′-Diindolylmethane (DIM) Behaves as CB2 Receptor Agonist in Prostate Cancer Cellular Models” (International Journal of Molecular Sciences, 2023)
“Also recorded” adds a separate entry of the source.

Columns and labels:
[1] = tested on: FSK-induced cAMP production in PC3 cells; assay: Cyclic AMP assay (HitHunter), FSK-induced cAMP production in PC3 cells; assay type: cell-based, human; conditions: for Imax, inhibition of FSK-induced cAMP production / pIC50, inhibition of FSK-induced cAMP production / IC50: agonist alone; for IC50: read-out: IC50, inhibition of FSK-induced cAMP production
Procedure: The assays were performed using the HitHunter® cAMP assay kit (Eurofins DiscoverX Products, Celle-L’Evescault, France) according to the vendor’s protocol and previous studies. Briefly, cells were detached using cell dissociation buffer, counted and seeded at 2 × 10^4 cells per well in […] of complete medium onto white 96-well plates and incubated at 37 °C and 5% CO2 for approximately 24 h before running the experiment. The assays and the drug dilutions were performed in a 1:1 mixture of DMEM and Ham’s F12 medium without phenol red, containing […] of rolipram and forskolin (FSK; 7b-acetoxy-8,13-epoxy-1a,6b,9 atrihydroxylabd-14-en-11-one). Before running the assay, the medium was discarded, and cells were washed with D-MEM/F-12 medium. Then, cells were treated with the assigned drugs (30 μL per well) and incubated for 30 min at 37 °C and 5% CO2. Finally, cAMP standards and the appropriate mixture of kit components were added (as described by the manufacturer, Eurofins DiscoverX Products, Celle-L’Evescault, France). Plates were incubated overnight at room temperature in the dark. Chemiluminescent signals were detected on a Synergy HT Multi-Mode Microplate Reader (ThermoFisher Scientific, Loughborough, UK).
(§1) Values for half of the maximal effective concentration required to elicit a response (EC50), or for the half maximal inhibitory concentration (IC50) required to inhibit a response, as well as for maximal effect (Emax), standard error of the mean (S.E.M.) and 95% confidence limits of EC50 and IC50, have been calculated by nonlinear regression analysis using the equation for a sigmoid concentration–response curve (GraphPad Prism v5.0, San Diego, CA, USA). Paired Student’s t-test or one-way ANOVA analysis of variance (with Tukey’s post hoc analysis) was used where appropriate for cell viability and western blotting data. A value of p < 0.05 was taken as being significant.

[2] = tested on: cannabinoid CB1 or CB2 receptors (LNCaP cell membranes); assay: [35S]GTPγS binding in LNCaP cell membranes; assay type: biochemical, human; conditions: agonist alone, read-out: EC50, stimulation of [35S]GTPγS binding
Procedure: (§2) Binding assays with [^35S]GTPγS were performed with PC3 or LNCaP cell membranes. Both PC3 and LNCaP cells were removed from flasks by scraping and then frozen as a pellet at −20 °C until required. Before use in a radioligand-binding assay, cells were defrosted, diluted in Tris buffer (50 mM Tris–HCl, 50 mM Tris-Base) and homogenized. Protein assays were performed using a Bio-Rad Dc kit (Bio-Rad©, Watford, UK).
The measurement of ligand-stimulated [^35S]GTPγS binding to cannabinoid CB1 or CB2 receptors was adapted from methods described previously. The assays were carried out with GTPγS-binding buffer (50 mM Tris–HCl, 50 mM Tris-Base, 5 mM MgCl2, 1 mM ethylenediaminetetraacetic acid, 100 mM NaCl, 1 mM dithiothreitol and 0.1% bovine serum albumin) in the presence of [^35S]GTPγS and GDP, in a final volume of 500 μL. Binding was initiated by the addition of [^35S]GTPγS to the wells. Non-specific binding was measured in the presence of 30 μM GTPγS. The drugs were incubated in the assay for 60 min at 30 °C. The reaction was terminated by a rapid vacuum filtration method using Tris-binding buffer, as described previously, and the radioactivity was quantified by liquid scintillation spectrometry. In all the [^35S]GTPγS-binding assays, we used 0.1 nM [^35S]GTPγS, 30 μM GDP and a protein concentration of 40 μg per well for PC3 and LNCaP cell membranes. Compounds were stored at −20 °C in DMSO. […]

[3] = tested on: cannabinoid CB1 or CB2 receptors (PC3 cell membranes); assay: [35S]GTPγS binding in PC3 cell membranes; assay type: biochemical, human; conditions: for EC50: agonist alone, read-out: EC50, stimulation of [35S]GTPγS binding
Procedure: as §2
The measurement of ligand-stimulated [^35S]GTPγS binding to cannabinoid CB1 or CB2 receptors was adapted from methods described previously. The assays were carried out with GTPγS-binding buffer (50 mM Tris–HCl, 50 mM Tris-Base, 5 mM MgCl2, 1 mM ethylenediaminetetraacetic acid, 100 mM NaCl, 1 mM dithiothreitol and 0.1% bovine serum albumin) in the presence of [^35S]GTPγS and GDP, in a final volume of 500 μL. Binding was initiated by the addition of [^35S]GTPγS to the wells. Non-specific binding was measured in the presence of 30 μM GTPγS. The drugs were incubated in the assay for 60 min at 30 °C. The reaction was terminated by a rapid vacuum filtration method using Tris-binding buffer, as described previously, and the radioactivity was quantified by liquid scintillation spectrometry. In all the [^35S]GTPγS-binding assays, we used 0.1 nM [^35S]GTPγS, 30 μM GDP and a protein concentration of 40 μg per well for PC3 and LNCaP cell membranes. Compounds were stored at −20 °C in DMSO.
Paired Student’s t-test or one-way ANOVA analysis of variance (with Tukey’s post hoc analysis) was used where appropriate for cell viability and western blotting data. A value of p < 0.05 was taken as being significant.

PC3 cells = assay: Cell viability (MTT) assay in PC3 cells; assay type: cell-based, human; conditions: 24 h, DIM alone
Procedure: (§3) Human prostate cancer cell lines, LNCaP and PC3, were obtained from the European Collection of Animal Cell Cultures. These were cultured in RPMI 1640 medium (Merck Life Science Ltd., Gillingham, UK) containing 10% (vol:vol) fetal bovine serum and 1% (vol:vol) Penicillin–Streptomycin Solution (10,000 U/mL penicillin and 10 mg/mL streptomycin in 0.9% sodium chloride (Merck Life Science Ltd., Gillingham, UK).
(§4) A standard 3-(4,-5-dimethylthiazol-2-yl)-2,-5-diphenyl tetrazolium bromide (MTT) dye reduction assay was used to assess compounds. Briefly, cells were plated in a flat-bottomed 96-well plate at seeding densities of 6 × 10^3 cells per well for LNCaP cells and 5 × 10^3 cells per well for PC3 cells. Cells were treated the following day with the appropriate agents for 24 h. Following the incubation period, the MTT solution (5 mg/mL in phosphate-buffered saline) was added and incubated for 4 h. The contents of the wells were removed and replaced with 200 μL DMSO to dissolve the MTT formazan crystals. The plates were immediately read at 570 nm in a multi-well plate reader (DynaTech MR5000; Dynex Technologies Ltd., Chantilly, VA, USA).
as §1

CB1 receptors = tested on: CB1 receptors; design: method as in PMID 19286662; conditions: hCB1/CB2-CHO transfected cells; cited from earlier work
[4] = tested on: cleaved caspase 3 (CASP-3); assay: Western blot of cleaved caspase 3 levels in PC3 cells; assay type: cell-based, human
Procedure: (§5) Cells were homogenized in lysis buffer [20 mM Tris, 0.25 M sucrose, 10 mM ethyleneglycol-bis(aminoethylether)-tetraacetic acid, 2 mM ethylenediaminetetraacetic acid, 1 mM sodium orthovanadate, 25 mM sodium β-glycerophosphate and 50 mM sodium fluoride; pH 7.5]. Prior to use, 0.1% (vol:vol), protease Inhibitor Cocktail (Merck Life Science Ltd, Gillingham, UK) was added. A total of 20 μg of protein was electrophoresed through a precast 16% polyacrylamide gel (Thermo Fisher, Oxford, UK) for 2 h and the separated proteins were transferred to nitrocellulose membranes (Bio-Rad, UK), then blocked with 5% (wt:vol) skimmed milk in Tris-buffered saline with 0.1% (vol:vol) Tween 20 (TBST solution) at room temperature and incubated with 1:200 dilution of anti-pAKT (Ser473) antibody (Merck Life Science Limited, Watford, Hertfordshire UK) or 1:200 cleaved-CASP-3 antibody (Insight Biotechnology, UK) at 4 °C overnight. β-Actin (1:20,000) was used as an internal loading control to normalize between lanes during densitometry. The appropriate secondary antibody for pAKT (anti-mouse), cleaved-CASP-3 (anti-mouse) was used at a concentration of 1:5000 (Insight Biotechnology Ltd, Wembley, Middlesex, UK) and incubated at room temperature for 1 h. […]

LNCaP cells = assay: Cell viability (MTT) assay in LNCaP cells; assay type: cell-based, human; conditions: 24 h, DIM alone
Procedure: as §3, §4, §1

CB2 receptors = tested on: CB2 receptors; design: method as in PMID 19286662; conditions: hCB1/CB2-CHO transfected cells, β-arrestin assay; cited from earlier work
phosphor-AKT (Ser473) = assay: Western blot of phospho-AKT (Ser473) levels in PC3 cells; assay type: cell-based, human
Procedure: as §5

| Compound | Imax, inhibition of FSK-induced cAMP production [1] | pIC50, inhibition of FSK-induced cAMP production [1] | IC50 [1] | EC50 [2] | EC50 [3] | IC50 (PC3 cells) | Imax, cell viability (PC3 cells) | pIC50, cell viability (PC3 cells) | Functional behaviour on CB1 receptors (CB1 receptors) | Cleaved CASP-3 level ([4]; DIM 50 nM) | Cleaved CASP-3 level ([4]; DIM 50 µM) | Agonist behaviour in [35S]GTPγS binding [3] | IC50 (LNCaP cells) | Imax, cell viability (LNCaP cells) | pIC50, cell viability (LNCaP cells) | Functional behaviour on CB2 receptors (CB2 receptors) | pAKT level (phosphor-AKT (Ser473); DIM 50 nM) | pAKT level (phosphor-AKT (Ser473); DIM 50 µM) | Effect of CB1 antagonist on DIM's inhibition of FSK-induced cAMP production [1] |
| --- | --- | --- | --- | --- | --- | --- | --- | --- | --- | --- | --- | --- | --- | --- | --- | --- | --- | --- | --- |
| CCCCCCC(C)(C)c1ccc([C@@H]2C[C@H](O)CC[C@H]2CCCO)c(O)c1 [CP 55,940] | 9.74 | 8.314 | 4.85 nM | 2.56 nM | 6.14 nM |  |  |  |  |  |  |  |  |  |  |  |  |  |  |
| c1ccc2c(Cc3c[nH]c4ccccc34)c[nH]c2c1 [DIM, 3-3′-Diindolylmethane] | 17.36 | 7.870 | 13.5 nM | 32.1 nM | 9.28 nM | 38900 nM | 8.50 | 4.410 | slight inverse agonist | significant increase | significant increase | full agonist behavior | 85000 nM | -16.63 | 4.071 | partially activate; also recorded: partial agonist | no significant reduction | strong and significant reduction |  |
| Cc1c(C(=O)NN2CCCCC2)nn(-c2ccc(Cl)cc2Cl)c1-c1ccc(Cl)cc1 [SR1] |  |  |  |  |  |  |  |  |  |  |  |  |  |  |  |  |  |  | no effect |
